Test results reported in patent US12084473B2, “β-D-2′-deoxy-2′-α-fluoro-2′-β-C-substituted-2-modified-N6-substituted purine nucleotides for HCV treatment” (Atea Pharmaceuticals, Inc., priority 2015, dated 2024).

Columns and labels:
human hepatocytes = assay: Metabolic studies in primary hepatocytes; assay type: in vitro ADME; conditions: 10 μM, 2-24 hr
Method: The metabolism of compounds 25, 27 and 5-2, at a concentration of 10 μM, were investigated in fresh primary cultures of human, dog and mouse hepatocytes. Plated hepatocytes from humans (XenoTech, mixed gender, pooled from 10 donors), male Beagle dog (BioreclamationIVT), and male ICR/CD-1 mice (BioreclamationIVT, 8 donors) in 6-well plates with matrigel overlay were incubated in singlet with 10 μM TA. After 2, 4, 6, 8 or 24 hr, intracellular levels of nucleotide prodrugs and their potential metabolites (prodrugs, monophosphates, triphosphates and nucleosides) were quantitated by LC-MS/MS. Concentrations below the lower limit of quantitation (1.5 pmol/10^6 cells for prodrugs, monophosphates and nucleosides and 12 pmol/10^6 cells for triphosphates) were extrapolated from the standard curves.

[1] = system: human bone marrow progenitor cells; assay: Human Bone Marrow Progenitor Cell Assay; assay type: cell-based; conditions: 14-day incubations, colony counts
Method: Fresh human bone marrow progenitor cells (Invitrogen) suspended in either BFU-E or GM-CSF-specific culture medium were added, at 10^5 cells/well, to triplicate serial dilutions of TA in 6-well plates. After 14-day incubations, colony counts were used to determine CC50 values. BFU-E colonies were confirmed using the benzidene technique.

human DNA polymerase α = target: T1, human DNA polymerase α (Homo sapiens, UniProt P09884); assay: Human DNA Polymerase Assays; assay type: biochemical; conditions: at concentrations up to 100 μM
T1 construct: purchased CHIMERx
T1 sequence (P09884 1-1462): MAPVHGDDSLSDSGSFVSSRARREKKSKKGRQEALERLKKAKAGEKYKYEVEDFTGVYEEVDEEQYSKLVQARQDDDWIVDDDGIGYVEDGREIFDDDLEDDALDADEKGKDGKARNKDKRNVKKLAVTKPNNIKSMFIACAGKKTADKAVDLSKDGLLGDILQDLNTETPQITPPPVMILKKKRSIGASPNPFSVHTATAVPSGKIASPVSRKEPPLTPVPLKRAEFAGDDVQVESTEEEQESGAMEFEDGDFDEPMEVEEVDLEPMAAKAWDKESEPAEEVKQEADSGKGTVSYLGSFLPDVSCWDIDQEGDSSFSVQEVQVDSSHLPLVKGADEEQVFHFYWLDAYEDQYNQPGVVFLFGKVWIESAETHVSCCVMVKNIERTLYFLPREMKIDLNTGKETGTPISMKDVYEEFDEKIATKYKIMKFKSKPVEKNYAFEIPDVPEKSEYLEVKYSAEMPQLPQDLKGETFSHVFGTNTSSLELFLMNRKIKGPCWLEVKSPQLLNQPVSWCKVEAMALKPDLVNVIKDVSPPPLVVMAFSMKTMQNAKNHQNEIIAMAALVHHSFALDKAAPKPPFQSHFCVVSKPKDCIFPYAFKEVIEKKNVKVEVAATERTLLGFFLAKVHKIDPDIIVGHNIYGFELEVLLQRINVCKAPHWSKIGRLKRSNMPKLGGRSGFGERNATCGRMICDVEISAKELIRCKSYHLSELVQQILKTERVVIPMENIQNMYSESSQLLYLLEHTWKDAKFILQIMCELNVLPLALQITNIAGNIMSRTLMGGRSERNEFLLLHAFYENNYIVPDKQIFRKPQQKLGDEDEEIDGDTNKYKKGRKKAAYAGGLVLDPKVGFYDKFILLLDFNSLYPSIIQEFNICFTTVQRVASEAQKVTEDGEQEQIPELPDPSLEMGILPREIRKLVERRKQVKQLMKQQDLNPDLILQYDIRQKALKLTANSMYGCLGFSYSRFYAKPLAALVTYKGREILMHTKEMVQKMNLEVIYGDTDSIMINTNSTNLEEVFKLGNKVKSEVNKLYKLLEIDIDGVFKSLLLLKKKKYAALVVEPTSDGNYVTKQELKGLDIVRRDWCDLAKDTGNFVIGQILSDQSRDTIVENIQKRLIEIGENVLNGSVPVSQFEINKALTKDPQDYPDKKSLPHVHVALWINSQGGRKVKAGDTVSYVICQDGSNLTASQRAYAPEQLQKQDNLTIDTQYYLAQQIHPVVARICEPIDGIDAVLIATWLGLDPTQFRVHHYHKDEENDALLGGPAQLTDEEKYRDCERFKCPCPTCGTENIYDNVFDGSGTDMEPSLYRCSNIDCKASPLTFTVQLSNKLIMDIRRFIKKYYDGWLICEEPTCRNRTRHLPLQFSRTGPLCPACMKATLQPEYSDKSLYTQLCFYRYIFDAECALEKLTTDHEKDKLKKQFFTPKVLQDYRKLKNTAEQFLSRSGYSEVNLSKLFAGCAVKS
Method: Inhibition of human DNA polymerases α, β and γ (CHIMERx) was determined in triplicate in reaction mixtures of serially diluted TA, 0.05 mM dCTP, dTTP, and dATP, 10 μCi [^32P]-α-dGTP (800 Ci/mmol), 20 μg activated calf thymus DNA and additional reagents specific for each polymerase.

[2] = system: HCV genotype 1b luciferase reporter replicon; assay: microbe, parasite or virus in culture; assay type: cell-based; conditions: Hepatitis C virus, HuH-7-Luc/Neo-ET, 72 h, read-out: HCV Replicon EC50/EC95: EC50

SMILES | predominant metabolite observed in cultured human hepatocytes (human hepatocytes) | cytotoxicity against bone marrow stem cells in vitro [1] | inhibition of human DNA polymerase α (human DNA polymerase α) | EC50 [2] [nM]
CC(C)OC(=O)[C@H](C)N[P@](=O)(OCC1O[C@@H](n2cnc3c(N(C)C4CC4)nc(N)nc32)[C@](C)(F)[C@@H]1O)Oc1ccccc1 (stereo partly drawn) [Compound 27, isopropyl ((((S)-(2R,3R,4R,5R)-5-(2-amino-6-(methylcyclopropanamino)-9H-purin-9-yl)-4-fluoro-3-hydroxy-4-methyltetrahydrofuran-2-yl)methoxy)-phenoxy-phosphoryl)-L-alaninate] | β-D-2′-deoxy-2′-α-fluoro-2′-β-methyl-guanine triphosphate | no cytotoxicity | No inhibition | 5
CC(C)OC(=O)[C@H](C)N[P@](=O)(OCC1O[C@@H](n2cnc3c(N(C)C)nc(N)nc32)[C@](C)(F)[C@@H]1O)Oc1ccccc1 (stereo partly drawn) [Compound 25, isopropyl ((((S)-(2R,3R,4R,5R)-5-(2-amino-6-(dimethylamino)-9H-purin-9-yl)-4-fluoro-3-hydroxy-4-methyltetrahydrofuran-2-yl)methoxy)-phenoxy-phosphoryl)-L-alaninate] | β-D-2′-deoxy-2′-α-fluoro-2′-β-methyl-guanine triphosphate | no cytotoxicity | No inhibition | 4
CNc1nc(N)nc2c1ncn2[C@@H]1OC(CO[P@@](=O)(N[C@@H](C)C(=O)OC(C)C)Oc2ccccc2)[C@@H](O)[C@@]1(C)F (some centres unmarked) [Compound 5-2] | β-D-2′-deoxy-2′-α-fluoro-2′-β-methyl-guanine triphosphate | no cytotoxicity | – | 4
